Assay results as given in PMC8609999, “A Phase I trial of talazoparib in patients with advanced hematologic malignancies” (International Journal of Hematologic Oncology, 2021).
Like-named read-outs stand apart in the source and are kept apart here. Marks after values point to notes of the source that are not given here.

Key:
[1] = system: patients with advanced hematologic malignancies (cohort 1: AML/MDS; cohort 2: CLL/MCL); format: in vivo, human
Excerpt: AEs were coded in accordance with The Medical Dictionary for Regulatory Activities, version 16.1. Treatment-emergent AEs (TEAEs) were defined as AEs that were new, increased in frequency, or worsened in severity, after the first talazoparib dose. AEs counted as drug-related had been classified by investigators as possibly or probably related to talazoparib.
All analyses in this open-label, dose-finding study were descriptive in nature. Descriptive summaries of continuous variables, including the mean, standard deviation (SD), median, range, and, where appropriate, 95% CI and/or interquartile range, were determined using the Statistical Analysis Software (SAS), version 9.2. Descriptive summaries of categorical variables included the number of patients and percentages. Data were summarized with respect to the dose level at which the patients started treatment. Cohorts were defined as all patients who began treatment at a given dose level.

[2] = system: germline BRCA1/2-mutated HER2- advanced breast cancer; design: method as in PMID 30110579; settings: 1 mg once daily; cited from earlier work
[3] = Urine pharmacokinetics after multiple daily talazoparib dosing; format: in vivo, human
Description: (§1) Plasma and urine samples were assayed for talazoparib concentrations by Covance Laboratories Inc., using validated high performance liquid chromatography with tandem mass spectrometry detection methods. The lower limits of quantitation for […] and urine were 5.0 pg/ml and 25.0 pg/ml, respectively. Evaluated PK parameters included maximum concentration (Cmax), minimum concentration (Cmin), time to maximum plasma concentration (Tmax), area under the curve from time 0 to last measurable concentration (AUC0–t), area under the curve from time 0 to 24 h post-dose (AUC0–24), amount of drug excreted into the urine from time 0 to 24 h (Ae0–24), fraction of administered drug excreted in the urine from time 0 to 24 h (Fe0–24), and average renal clearance from time 0 to 24 h (ARC0–24); ARC0–24 was calculated as (Ae0–24/AUC0–24). PK parameters were calculated using Phoenix™ WinNonlin® 6.1.
(§2) Summary statistics for plasma and urine talazoparib concentrations and PK parameters were calculated by grouping subjects in cohorts 1 and 2 together to provide a larger sample size at each dose level.

[4] = Plasma pharmacokinetics after multiple daily talazoparib dosing; format: in vivo, human
Description: as §1, §2

[5] = 1.35 mg/day, multiple daily dosing, urine, n = 2, geometric mean (geometric CV%)
[6] = 1.35 mg/day, cycle 2 day 1, plasma, n = 3, median (range)

Structure (SMILES): Cn1ncnc1[C@H]1c2n[nH]c(=O)c3cc(F)cc(c23)N[C@@H]1c1ccc(F)cc1 [talazoparib]
- Any AEs leading to dose interruption or modification ([1]; Cohort 1, 1.35 mg/day (n = 3)): 0 (0.0) n (%)
- Any AEs leading to study drug withdrawn ([1]; Cohort 1, 1.35 mg/day (n = 3)): 0 (0.0) n (%)
- Any AEs of CTCAE Grade 3 or 4 ([1]; Cohort 1, 1.35 mg/day (n = 3)): 3 (100) n (%)
- Any AEs of CTCAE Grade of 5 (death) ([1]; Cohort 1, 1.35 mg/day (n = 3)): 1 (33.3) n (%)
- Any SAEs ([1]; Cohort 1, 1.35 mg/day (n = 3)): 2 (66.7) n (%)
- Any SAEs of CTCAE Grade of 3 or 4 ([1]; Cohort 1, 1.35 mg/day (n = 3)): 2 (66.7) n (%)
- Any study drug-related AEs ([1]; Cohort 1, 1.35 mg/day (n = 3)): 3 (100) n (%)
- Any study drug-related AEs leading to dose interruption or modification ([1]; Cohort 1, 1.35 mg/day (n = 3)): 0 (0.0) n (%)
- Any study drug-related AEs leading to study drug withdrawal ([1]; Cohort 1, 1.35 mg/day (n = 3)): 0 (0.0) n (%)
- Any study drug-related AEs of CTCAE Grade 5 (death) ([1]; Cohort 1, 1.35 mg/day (n = 3)): 0 (0.0) n (%)
- Any study drug-related AEs of CTCAE Grade of 3 or 4 ([1]; Cohort 1, 1.35 mg/day (n = 3)): 2 (66.7) n (%)
- Any study drug-related SAEs ([1]; Cohort 1, 1.35 mg/day (n = 3)): 0 (0.0) n (%)
- Any AEs of CTCAE Grade of 5 (death) ([1]; Cohort 1, 2.00 mg/day (n = 4)): 3 (75.0) n (%)
- Any study drug-related AEs of CTCAE Grade 5 (death) ([1]; Cohort 1, 2.00 mg/day (n = 4)): 1 (25.0)^§ n (%)
- Any AEs of CTCAE Grade of 5 (death) ([1]; Cohort 1, All (n = 25)): 12 (48.0) n (%)
- Any study drug-related AEs of CTCAE Grade 5 (death) ([1]; Cohort 1, All (n = 25)): 1 (4.0)^§ n (%)
- Any AEs of CTCAE Grade of 5 (death) ([1]; Cohort 2, 0.10 mg/day (n = 3)): 1 (33.3) n (%)
- Any study drug-related AEs of CTCAE Grade 5 (death) ([1]; Cohort 2, 0.10 mg/day (n = 3)): 0 (0.0) n (%)
- Any AEs of CTCAE Grade of 5 (death) ([1]; Cohort 2, 0.90 mg/day (n = 5)): 0 (0.0) n (%)
- Any study drug-related AEs of CTCAE Grade 5 (death) ([1]; Cohort 2, 0.90 mg/day (n = 5)): 0 (0.0) n (%)
- Any AEs of CTCAE Grade of 5 (death) ([1]; Cohort 2, All (n = 8)): 1 (12.5) n (%)
- Any study drug-related AEs of CTCAE Grade 5 (death) ([1]; Cohort 2, All (n = 8)): 0 (0.0) n (%)
- Deaths ([1]; both cohorts, N = 33, during study or within 30 days after last dose): 39.4%
- Patients with Grade 3/4 TEAEs ([1]; human, in vivo): 84.8%
- Patients with TEAEs leading to dose interruption/reduction related to study drug ([1]; human, in vivo): 30.3%
- Patients with a Grade 3/4 SAE ([1]; human, in vivo): 51.5%
- Patients with a drug-related SAE ([1]; human, in vivo): 9.1%
- Patients with at least one TEAE leading to dose interruption and/or reduction ([1]; human, in vivo): 45.5%
- Patients with drug-related Grade 3/4 TEAEs ([1]; human, in vivo): 42.4%
- Patients with drug-related TEAEs (possibly or probably related) ([1]; human, in vivo): 69.7%
- Patients with serious AEs (SAEs) ([1]; human, in vivo): 75.8%
- TEAE: Fatigue ([1]; n = 33, All grades (Grade 1–4 only)): 13 (39.4) n (%)
- Progression-free survival compared with physician's choice of chemotherapy [2]: significantly longer progression-free survival
- Ae0–24 [3, 5]: 0.531 (29.8) mg
- Fe0–24 (fraction of administered drug excreted in urine) [3, 5]: 0.393 (29.8)
- Major clearance pathway ([3]; human, in vivo): urinary elimination is the major clearance pathway
- AR (accumulation ratio) [4, 6]: 3.80 (3.28, 4.22)
- Tmax [4, 6]: 1.03 (1.00, 4.00) hr
- AUC(0-t) ([4]; human, in vivo, 1.35 mg/day, cycle 2 day 1, plasma, n = 3, geometric mean (geometric CV%), read-out: AUC0–24): 226 ng·h/mL
- AUC(0-t) ([4]; human, in vivo, 1.35 mg/day, cycle 2 day 1, plasma, n = 3, geometric mean (geometric CV%), read-out: AUC0–t): 225 ng·h/mL
- Cmax ([4]; human, in vivo, 1.35 mg/day, cycle 2 day 1, plasma, n = 3, geometric mean (geometric CV%)): 19.7 ng/mL
- Total exposure vs dose ([4]; in vivo): dose-proportional increases in total exposure
